# Measurements reported in the supplement of paper PMC10307832.
# Key:
# Assay in all cases: relative viability (nuclei count vs DMSO), 5 days (fraction); higher = more cells survive
# [1] = tested on: NCI-H2126
# How it was run: (§1)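 The day after seeding in 1536-well plates, lung cancer cell lines were treated by pin tool with a single drug, or with a fixed anchor-drug dose together with five library-drug doses (not always all listed) in √10 steps. After 5 days, a combined fix-and-stain solution (final 0.05% Triton X-100, 1% formaldehyde, 1 ug/ml Hoechst) was added. Nuclei counted on 4× images gave relative viability as treated counts over vehicle counts, reported as the median of duplicate plates.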
# [2] = tested on: NCI-H1666
# How it was run: as §1
# [3] = tested on: SK-LU-1
# How it was run: as §1
# [4] = tested on: LK-2
# How it was run: as §1
# [5] = tested on: LU99A
# How it was run: as §1
# [6] = tested on: EKVX
# How it was run: as §1
# [7] = tested on: NCI-H1563
# How it was run: as §1
# [8] = tested on: NCI-H23
# How it was run: as §1
# [9] = tested on: NCI-H2405
# How it was run: as §1
# [10] = tested on: NCI-H1975
# How it was run: as §1
# [11] = tested on: LXF-289
# How it was run: as §1
# [12] = tested on: EPLC-272H
# How it was run: as §1
# [13] = tested on: HCC-827
# How it was run: as §1
# [14] = tested on: HCC-78
# How it was run: as §1
# [15] = tested on: RERF-LC-KJ
# How it was run: as §1
# [16] = tested on: SW 1573
# How it was run: as §1
# [17] = tested on: EMC-BAC-2
# How it was run: as §1
# [18] = tested on: NCI-H322M
# How it was run: as §1
# [19] = tested on: PC-14
# How it was run: as §1
compound,measurement,setting,value
O=c1cc(N2CCOCC2)oc2c(-c3cccc4c3sc3ccccc34)cccc12 + CS(=O)(=O)CCNCc1ccc(-c2ccc3ncnc(Nc4ccc(OCc5cccc(F)c5)c(Cl)c4)c3c2)o1 [Lapatinib] (partner 2 µM),relative viability,[1]; first compound 0.01 µM,0.826
same,relative viability,[1]; first compound 0.03162 µM,0.768
same,relative viability,[1]; first compound 0.1 µM,0.758
same,relative viability,[1]; first compound 0.3162 µM,0.748
same,relative viability,[1]; first compound 1 µM,0.718
same,relative viability,[2]; first compound 0.01 µM,0.555
same,relative viability,[2]; first compound 0.03162 µM,0.735
same,relative viability,[2]; first compound 0.1 µM,0.715
same,relative viability,[2]; first compound 0.3162 µM,0.614
same,relative viability,[2]; first compound 1 µM,0.591
same,relative viability,[3]; first compound 0.01 µM,0.808
same,relative viability,[3]; first compound 0.03162 µM,0.815
same,relative viability,[3]; first compound 0.1 µM,0.671
same,relative viability,[3]; first compound 0.3162 µM,0.82
same,relative viability,[3]; first compound 1 µM,0.816
same,relative viability,[4]; first compound 0.01 µM,0.832
same,relative viability,[4]; first compound 0.03162 µM,0.986
same,relative viability,[4]; first compound 0.1 µM,1.12
same,relative viability,[4]; first compound 0.3162 µM,0.909
same,relative viability,[4]; first compound 1 µM,1.07
same,relative viability,[5]; first compound 0.01 µM,1.11
same,relative viability,[5]; first compound 0.03162 µM,1.04
same,relative viability,[5]; first compound 0.1 µM,0.921
same,relative viability,[5]; first compound 0.3162 µM,1.02
same,relative viability,[5]; first compound 1 µM,1.07
same,relative viability,[6]; first compound 0.01 µM,0.218
same,relative viability,[6]; first compound 0.03162 µM,0.216
same,relative viability,[6]; first compound 0.1 µM,0.196
same,relative viability,[6]; first compound 0.3162 µM,0.202
same,relative viability,[6]; first compound 1 µM,0.219
same,relative viability,[7]; first compound 0.01 µM,1.27
same,relative viability,[7]; first compound 0.03162 µM,0.995
same,relative viability,[7]; first compound 0.1 µM,1.04
same,relative viability,[7]; first compound 0.3162 µM,0.762
same,relative viability,[7]; first compound 1 µM,0.782
same,relative viability,[8]; first compound 0.01 µM,0.992
same,relative viability,[8]; first compound 0.03162 µM,1.09
same,relative viability,[8]; first compound 0.3162 µM,1.1
same,relative viability,[8]; first compound 1 µM,1.22
same,relative viability,[9]; first compound 0.01 µM,1.12
same,relative viability,[9]; first compound 0.03162 µM,1.18
same,relative viability,[9]; first compound 0.1 µM,1.04
same,relative viability,[9]; first compound 0.3162 µM,1.2
same,relative viability,[9]; first compound 1 µM,1.11
same,relative viability,[10]; first compound 0.01 µM,0.856
same,relative viability,[10]; first compound 0.03162 µM,0.84
same,relative viability,[10]; first compound 0.1 µM,0.848
same,relative viability,[10]; first compound 0.3162 µM,0.849
same,relative viability,[10]; first compound 1 µM,0.826
same,relative viability,[11]; first compound 0.01 µM,0.872
same,relative viability,[11]; first compound 0.03162 µM,0.881
same,relative viability,[11]; first compound 0.1 µM,0.89
same,relative viability,[11]; first compound 0.3162 µM,0.897
same,relative viability,[11]; first compound 1 µM,0.946
same,relative viability,[12]; first compound 0.01 µM,1.15
same,relative viability,[12]; first compound 0.03162 µM,1.12
same,relative viability,[12]; first compound 0.3162 µM,0.928
same,relative viability,[12]; first compound 1 µM,0.825
same,relative viability,[13]; first compound 0.01 µM,0.222
same,relative viability,[13]; first compound 0.03162 µM,0.213
same,relative viability,[13]; first compound 0.1 µM,0.215
same,relative viability,[13]; first compound 0.3162 µM,0.186
same,relative viability,[13]; first compound 1 µM,0.256
same,relative viability,[14]; first compound 0.01 µM,1.03
same,relative viability,[14]; first compound 0.03162 µM,0.856
same,relative viability,[14]; first compound 0.1 µM,0.785
same,relative viability,[14]; first compound 0.3162 µM,0.785
same,relative viability,[14]; first compound 1 µM,0.652
same,relative viability,[15]; first compound 0.01 µM,0.701
same,relative viability,[15]; first compound 0.03162 µM,0.882
same,relative viability,[15]; first compound 0.1 µM,0.906
same,relative viability,[15]; first compound 0.3162 µM,0.902
same,relative viability,[15]; first compound 1 µM,0.795
same,relative viability,[16]; first compound 0.01 µM,0.21
same,relative viability,[16]; first compound 0.03162 µM,1.22
same,relative viability,[16]; first compound 0.1 µM,1.06
same,relative viability,[16]; first compound 0.3162 µM,1.07
same,relative viability,[16]; first compound 1 µM,1.14
same,relative viability,[17]; first compound 0.01 µM,0.732
same,relative viability,[17]; first compound 0.03162 µM,0.946
same,relative viability,[17]; first compound 0.1 µM,0.97
same,relative viability,[17]; first compound 0.3162 µM,0.893
same,relative viability,[17]; first compound 1 µM,0.848
same,relative viability,[18]; first compound 0.01 µM,0.584
same,relative viability,[18]; first compound 0.03162 µM,0.6
same,relative viability,[18]; first compound 0.3162 µM,0.577
same,relative viability,[18]; first compound 1 µM,0.455
same,relative viability,[19]; first compound 0.01 µM,0.331
same,relative viability,[19]; first compound 0.03162 µM,0.32
same,relative viability,[19]; first compound 0.1 µM,0.272
same,relative viability,[19]; first compound 0.3162 µM,0.308
same,relative viability,[19]; first compound 1 µM,0.302
O=c1cc(-c2cccc3c2Sc2ccccc2S3)oc(N2CCOCC2)c1 + CS(=O)(=O)CCNCc1ccc(-c2ccc3ncnc(Nc4ccc(OCc5cccc(F)c5)c(Cl)c4)c3c2)o1 [Lapatinib] (partner 2 µM),relative viability,[1]; first compound 0.08 µM,0.715
same,relative viability,[1]; first compound 0.253 µM,0.801
same,relative viability,[1]; first compound 0.8 µM,0.679
same,relative viability,[1]; first compound 2.53 µM,0.679
same,relative viability,[1]; first compound 8 µM,0.796
same,relative viability,[2]; first compound 0.08 µM,0.533
same,relative viability,[2]; first compound 0.253 µM,0.781
same,relative viability,[2]; first compound 0.8 µM,0.485
same,relative viability,[2]; first compound 2.53 µM,0.652
same,relative viability,[2]; first compound 8 µM,0.573
same,relative viability,[3]; first compound 0.08 µM,1.02
same,relative viability,[3]; first compound 0.253 µM,0.858
same,relative viability,[3]; first compound 0.8 µM,0.968
same,relative viability,[3]; first compound 2.53 µM,0.817
same,relative viability,[3]; first compound 8 µM,0.836
same,relative viability,[4]; first compound 0.08 µM,0.86
same,relative viability,[4]; first compound 0.253 µM,1
same,relative viability,[4]; first compound 0.8 µM,0.997
same,relative viability,[4]; first compound 2.53 µM,0.918
same,relative viability,[4]; first compound 8 µM,1.21
same,relative viability,[5]; first compound 0.08 µM,1.07
same,relative viability,[5]; first compound 0.253 µM,0.954
same,relative viability,[5]; first compound 0.8 µM,1.49
same,relative viability,[5]; first compound 2.53 µM,1.03
same,relative viability,[5]; first compound 8 µM,1.11
same,relative viability,[6]; first compound 0.08 µM,0.226
same,relative viability,[6]; first compound 0.253 µM,0.186
same,relative viability,[6]; first compound 0.8 µM,0.166
same,relative viability,[6]; first compound 2.53 µM,0.186
same,relative viability,[6]; first compound 8 µM,0.202
same,relative viability,[7]; first compound 0.08 µM,0.872
same,relative viability,[7]; first compound 0.253 µM,0.978
same,relative viability,[7]; first compound 0.8 µM,0.9
same,relative viability,[7]; first compound 2.53 µM,0.934
same,relative viability,[7]; first compound 8 µM,0.891
same,relative viability,[8]; first compound 0.08 µM,1.1
same,relative viability,[8]; first compound 0.253 µM,1.34
same,relative viability,[8]; first compound 0.8 µM,1.14
same,relative viability,[8]; first compound 2.53 µM,0.868
same,relative viability,[8]; first compound 8 µM,1.17
same,relative viability,[9]; first compound 0.08 µM,0.928
same,relative viability,[9]; first compound 0.253 µM,1.1
same,relative viability,[9]; first compound 0.8 µM,1.02
same,relative viability,[9]; first compound 2.53 µM,0.937
same,relative viability,[9]; first compound 8 µM,1.02
same,relative viability,[10]; first compound 0.08 µM,0.827
same,relative viability,[10]; first compound 0.253 µM,1.06
same,relative viability,[10]; first compound 0.8 µM,0.894
same,relative viability,[10]; first compound 2.53 µM,0.794
same,relative viability,[10]; first compound 8 µM,0.973
same,relative viability,[11]; first compound 0.08 µM,0.87
same,relative viability,[11]; first compound 0.253 µM,0.935
same,relative viability,[11]; first compound 0.8 µM,0.942
same,relative viability,[11]; first compound 2.53 µM,0.856
same,relative viability,[11]; first compound 8 µM,0.93
same,relative viability,[12]; first compound 0.08 µM,0.935
same,relative viability,[12]; first compound 0.253 µM,0.841
same,relative viability,[12]; first compound 0.8 µM,0.867
same,relative viability,[12]; first compound 2.53 µM,0.779
same,relative viability,[12]; first compound 8 µM,1.2
same,relative viability,[13]; first compound 0.08 µM,0.189
same,relative viability,[13]; first compound 0.253 µM,0.196
same,relative viability,[13]; first compound 0.8 µM,0.168
same,relative viability,[13]; first compound 2.53 µM,0.189
same,relative viability,[13]; first compound 8 µM,0.178
same,relative viability,[14]; first compound 0.08 µM,0.873
same,relative viability,[14]; first compound 0.253 µM,0.822
same,relative viability,[14]; first compound 0.8 µM,0.718
same,relative viability,[14]; first compound 2.53 µM,0.735
same,relative viability,[14]; first compound 8 µM,0.901
same,relative viability,[15]; first compound 0.08 µM,0.836
same,relative viability,[15]; first compound 0.253 µM,0.998
same,relative viability,[15]; first compound 0.8 µM,0.876
same,relative viability,[15]; first compound 2.53 µM,0.907
same,relative viability,[15]; first compound 8 µM,0.98
same,relative viability,[16]; first compound 0.08 µM,1.02
same,relative viability,[16]; first compound 0.253 µM,1.28
same,relative viability,[16]; first compound 0.8 µM,0.935
same,relative viability,[16]; first compound 2.53 µM,1.05
same,relative viability,[16]; first compound 8 µM,1.24
same,relative viability,[17]; first compound 0.08 µM,0.873
same,relative viability,[17]; first compound 0.253 µM,0.987
same,relative viability,[17]; first compound 0.8 µM,0.887
same,relative viability,[17]; first compound 2.53 µM,0.865
same,relative viability,[17]; first compound 8 µM,0.929
same,relative viability,[18]; first compound 0.08 µM,0.64
same,relative viability,[18]; first compound 0.253 µM,0.768
same,relative viability,[18]; first compound 0.8 µM,0.529
same,relative viability,[18]; first compound 2.53 µM,0.564
same,relative viability,[18]; first compound 8 µM,0.607
same,relative viability,[19]; first compound 0.08 µM,0.291
same,relative viability,[19]; first compound 0.253 µM,0.388
same,relative viability,[19]; first compound 0.8 µM,0.245
same,relative viability,[19]; first compound 2.53 µM,0.245
same,relative viability,[19]; first compound 8 µM,0.308
